Reference: patent publication US8748624B2, “Picolinamido-propanoic acid derivatives useful as glucagon receptor antagonists” (Janssen Pharmaceutica NV, priority 2011, dated 2014)
pKi: −log10 of the molar value.

Assays:
[1] = target: human glucagon receptor (GCGR) (Homo sapiens (Human), UniProt P47871); test: Inhibition of 125I-glucagon binding to membranes from HEK293 cells expressing the human glucagon receptor; details: membranes of hGluc-1 HEK cells, 125I-glucagon 0.3 nM, 2 hours room temperature; IC50 converted to Ki; average if tested more than once
Summary of the method: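 Filtration binding assay on membranes from HEK293 cells stably expressing full-length human GCGR, 6 μg protein/well, with 0.3 nM ¹²⁵I-glucagon plus compound, 2 h at room temperature. Buffer: 50 mM HEPES pH 7.4, 5 mM MgCl2, 1 mM CaCl2, 0.2% BSA. IC50 by non-linear regression, converted to Ki.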

human GCGR = human GCGR (Homo sapiens (Human), UniProt P47871); test: Cellular functional assay, cAMP readout (glucagon-stimulated cAMP in HEK293 cells expressing human GCGR); type: cell-based; details: hGluc-1 HEK cells, LANCE TR-FRET, IC50 converted to Ki, average if tested more than once
Summary of the method: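 HEK293 cells stably transfected with full-length human GCGR were exposed to compound for 30 min before a 5-min challenge with […] (final) glucagon. Readout was TR-FRET (LANCE) cAMP versus standard curve; IC50s fitted by non-linear regression and converted to Ki values.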

Chain of human glucagon receptor (GCGR) (P47871 26-477): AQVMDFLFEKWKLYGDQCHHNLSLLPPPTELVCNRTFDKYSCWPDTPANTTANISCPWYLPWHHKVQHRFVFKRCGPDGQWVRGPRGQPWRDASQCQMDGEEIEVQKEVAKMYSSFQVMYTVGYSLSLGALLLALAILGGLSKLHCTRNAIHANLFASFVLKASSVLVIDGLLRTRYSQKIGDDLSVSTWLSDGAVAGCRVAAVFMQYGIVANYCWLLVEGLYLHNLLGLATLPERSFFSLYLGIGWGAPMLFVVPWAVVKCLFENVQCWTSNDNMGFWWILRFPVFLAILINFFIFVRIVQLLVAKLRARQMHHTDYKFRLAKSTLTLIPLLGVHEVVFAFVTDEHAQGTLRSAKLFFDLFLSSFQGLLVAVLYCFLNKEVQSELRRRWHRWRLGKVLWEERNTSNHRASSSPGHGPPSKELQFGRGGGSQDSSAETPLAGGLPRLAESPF
Chain of human GCGR (P47871 26-477): as above

Row | Compound | pKi [1] | pKi (human GCGR)
1 | O=C(O)CCNC(=O)c1ccc(-c2cc(Cl)ccc2C(=O)Nc2ccc(-c3ccc(Cl)cc3Cl)cc2)cn1 [Compound 19, 3-(5-(5-chloro-2-((2′,4′-dichloro-[1,1′-biphenyl]-4-yl)carbamoyl)phenyl)picolinamido)propanoic acid] | 7.40 | 7.34
2 | O=C(O)CCNC(=O)c1ccc(-c2cc(F)ccc2CNc2ccc(-c3ccc(Cl)c(Cl)c3)c(F)c2)cn1 [Compound 53, 3-(5-(2-(((3′,4′-dichloro-2-fluoro-[1,1′-biphenyl]-4-yl)amino)methyl)-5-fluorophenyl)picolinamido)propanoic acid] | 6.99 | 6.31
3 | Cc1ccc(-c2ccc(NCc3cc(F)c(F)cc3-c3ccc(C(=O)NCCC(=O)O)nc3)cc2Cl)c(F)c1 [Compound 105, 3-(5-(2-(((2-chloro-2′-fluoro-4′-methyl-[1,1′-biphenyl]-4-yl)amino)methyl)-4,5-difluorophenyl)picolinamido)propanoic acid] | 7.48 | 6.59
4 | O=C(O)CCNC(=O)c1ccc(-c2cc(Cl)ccc2CNc2ccc(-c3ccc(Cl)cc3)cc2F)cn1 [Compound 12, 3-(5-(5-chloro-2-(((4′-chloro-3-fluoro-[1,1′-biphenyl]-4-yl)amino)methyl)phenyl)picolinamido)propanoic acid] | 7.28 | 6.30
5 | O=C(O)CCNC(=O)c1ccc(-c2cc(Cl)ccc2CNc2ccc(-c3ccc(Cl)cc3Cl)c(F)c2)cn1 [Compound 92, 3-(5-(5-chloro-2-(((2′,4′-dichloro-2-fluoro-[1,1′-biphenyl]-4-yl)amino)methyl)phenyl)picolinamido)propanoic acid] | 7.71 | 6.94
6 | O=C(O)CCNC(=O)c1ccc(-c2cc(F)c(F)cc2CNc2ccc(-c3ccc(Cl)cc3Cl)c(Cl)c2)cn1 [Compound 108, 3-(5-(4,5-difluoro-2-(((2,2′,4′-trichloro-[1,1′-biphenyl]-4-yl)amino)methyl)phenyl)picolinamido)propanoic acid] | 7.62 | 7.07
7 | O=C(O)CCNC(=O)c1ccc(-c2cc(C(F)(F)F)ccc2CNc2ccc(-c3ccc(F)cc3Cl)cc2)cn1 [Compound 23, 3-(5-(2-(((2′-chloro-4′-fluoro-[1,1′-biphenyl]-4-yl)amino)methyl)-5-(trifluoromethyl)phenyl)picolinamido)propanoic acid] | 7.58 | 6.89
8 | O=C(O)CCNC(=O)c1ccc(-c2cc(Cl)ccc2CNc2ccc(-c3cccc(OC(F)(F)F)c3)cc2)cn1 [Compound 129, 3-(5-(5-chloro-2-(((3′-(trifluoromethoxy)-[1,1′-biphenyl]-4-yl)amino)methyl)phenyl)picolinamido)propanoic acid] | 7.07 | 6.15
9 | O=C(O)CCNC(=O)c1ccc(-c2cc(C(F)(F)F)ccc2CNc2ccc(-c3ccc(F)c(Cl)c3)c(Cl)c2)cn1 [Compound 35, 3-(5-(2-(((2,3′-dichloro-4′-fluoro-[1,1′-biphenyl]-4-yl)amino)methyl)-5-(trifluoromethyl)phenyl)picolinamido)propanoic acid] | 7.84 | 7.46
10 | O=C(O)CCNC(=O)c1ccc(-c2cc(C(F)(F)F)ccc2CNc2ccc(-c3ccc(C(F)(F)F)cc3Cl)c(Cl)c2)cn1 [Compound 42, 3-(5-(2-(((2,2′-dichloro-4′-(trifluoromethyl)-[1,1′-biphenyl]-4-yl)amino)methyl)-5-(trifluoromethyl)phenyl)picolinamido)propanoic acid] | 7.78 | 7.70
11 | O=C(O)CCNC(=O)c1ccc(-c2cc(C(F)(F)F)ccc2CNc2ccc(-c3ccc(C(F)(F)F)c(F)c3)c(Cl)c2)cn1 [Compound 39, 3-(5-(2-(((2-chloro-3′-fluoro-4′-(trifluoromethyl)-[1,1′-biphenyl]-4-yl)amino)methyl)-5-(trifluoromethyl)phenyl)picolinamido)propanoic acid] | 7.58 | 7.32
12 | O=C(O)CCNC(=O)c1ccc(-c2cc(C(F)(F)F)cc(Cl)c2CNc2ccc(-c3ccc(Cl)cc3)c(Cl)c2)cn1 [Compound 74, 3-(5-(3-chloro-2-(((2,4′-dichloro-[1,1′-biphenyl]-4-yl)amino)methyl)-5-(trifluoromethyl)phenyl)picolinamido)propanoic acid] | 7.83 | 8.15
13 | O=C(O)CCNC(=O)c1ccc(-c2cc(Cl)ccc2C(=O)Nc2ccc(-c3ccc(F)cc3F)cc2)cn1 [Compound 36, 3-(5-(5-chloro-2-((2′,4′-difluoro-[1,1′-biphenyl]-4-yl)carbamoyl)phenyl)picolinamido)propanoic acid] | 7.17 | 7.02
14 | O=C(O)CCNC(=O)c1ccc(-c2cc(Cl)ccc2CNc2ccc(-c3ccc(Cl)c(F)c3)cc2F)cn1 [Compound 13, 3-(5-(5-chloro-2-(((4′-chloro-3,3′-difluoro-[1,1′-biphenyl]-4-yl)amino)methyl)phenyl)picolinamido)propanoic acid] | 7.41 | 6.51
15 | O=C(O)CCNC(=O)c1ccc(-c2cc(F)c(F)cc2C(=O)Nc2ccc(-c3ccc(C(F)(F)F)cc3)cc2)cn1 [Compound 96, 3-(5-(4,5-difluoro-2-((4′-(trifluoromethyl)-[1,1′-biphenyl]-4-yl)carbamoyl)phenyl)picolinamido)propanoic acid] | 7.47 | 6.76
16 | O=C(O)CCNC(=O)c1ccc(-c2cc(C(F)(F)F)ccc2CNc2ccc(-c3cccc(C(F)(F)F)c3Cl)c(Cl)c2)cn1 [Compound 38, 3-(5-(2-(((2,2′-dichloro-3′-(trifluoromethyl)-[1,1′-biphenyl]-4-yl)amino)methyl)-5-(trifluoromethyl)phenyl)picolinamido)propanoic acid] | 7.65 | 7.65
17 | O=C(O)CCNC(=O)c1ccc(-c2cc(C(F)(F)F)c(Cl)cc2CNc2ccc(-c3ccc(Cl)cc3)cc2)cn1 [Compound 80, 3-(5-(4-chloro-2-(((4′-chloro-[1,1′-biphenyl]-4-yl)amino)methyl)-5-(trifluoromethyl)phenyl)picolinamido)propanoic acid] | 7.54 | 7.32
18 | O=C(O)CCNC(=O)c1ccc(-c2cc(Cl)ccc2CNc2ccc(-c3ccc(F)cc3F)c(Cl)c2)cn1 [Compound 63, 3-(5-(5-chloro-2-(((2-chloro-2′,4′-difluoro-[1,1′-biphenyl]-4-yl)amino)methyl)phenyl)picolinamido)propanoic acid] | 7.65 | 6.73
19 | O=C(O)CCNC(=O)c1ccc(-c2cc(Cl)ccc2CNc2ccc(-c3ccccc3C(F)(F)F)cc2)cn1 [Compound 131, 3-(5-(5-chloro-2-(((2′-(trifluoromethyl)-[1,1′-biphenyl]-4-yl)amino)methyl)phenyl)picolinamido)propanoic acid] | 7.15 | 5.76
20 | COc1ccc(-c2ccc(NCc3ccc(Cl)cc3-c3ccc(C(=O)NCCC(=O)O)nc3)cc2)c(Cl)c1 [Compound 143, 3-(5-(5-chloro-2-(((2′-chloro-4′-methoxy-[1,1′-biphenyl]-4-yl)amino)methyl)phenyl)picolinamido)propanoic acid] | 7.55 | 6.97
21 | Cc1cccc(-c2ccc(C(=O)NCCC(=O)O)nc2)c1CNc1ccc(-c2ccc(Cl)cc2)cc1 [Compound 65, 3-(5-(2-(((4′-chloro-[1,1′-biphenyl]-4-yl)amino)methyl)-3-methylphenyl)picolinamido)propanoic acid] | 6.86 | 6.41
22 | O=C(O)CCNC(=O)c1ccc(-c2cc(Cl)ccc2CNc2ccc(-c3ccccc3Cl)cc2)cn1 [Compound 135, 3-(5-(5-chloro-2-(((2′-chloro-[1,1′-biphenyl]-4-yl)amino)methyl)phenyl)picolinamido)propanoic acid] | 7.19 | 5.52
23 | COc1cc(NCc2ccc(Cl)cc2-c2ccc(C(=O)NCCC(=O)O)nc2)ccc1-c1ccc(C(F)(F)F)cc1 [Compound 54, 3-(5-(5-chloro-2-(((2-methoxy-4′-(trifluoromethyl)-[1,1′-biphenyl]-4-yl)amino)methyl)phenyl)picolinamido)propanoic acid] | 7.31 | 6.66
24 | O=C(O)CCNC(=O)c1ccc(-c2cc(F)c(F)cc2CNc2ccc(-c3ccc(Cl)cc3F)c(Cl)c2)cn1 [Compound 104, 3-(5-(2-(((2,4′-dichloro-2′-fluoro-[1,1′-biphenyl]-4-yl)amino)methyl)-4,5-difluorophenyl)picolinamido)propanoic acid] | 7.60 | 7.07
25 | O=C(O)CCNC(=O)c1ccc(-c2ccccc2CNc2ccc(-c3ccc(Cl)c(Cl)c3)cc2)cn1 [Compound 8, 3-(5-(2-(((3′,4′-dichloro-[1,1′-biphenyl]-4-yl)amino)methyl)phenyl)picolinamido)propanoic acid] | 7.03 | 6.25
26 | N#Cc1cc(NCc2cc(F)c(F)cc2-c2ccc(C(=O)NCCC(=O)O)nc2)ccc1-c1ccc(Cl)cc1 [Compound 110, 3-(5-(2-(((4′-chloro-2-cyano-[1,1′-biphenyl]-4-yl)amino)methyl)-4,5-difluorophenyl)picolinamido)propanoic acid] | 7.36 | 6.77
27 | CC(=O)c1ccc(-c2ccc(NCc3ccc(Cl)cc3-c3ccc(C(=O)NCCC(=O)O)nc3)cc2)cc1 [Compound 156, 3-(5-(2-(((4′-acetyl-[1,1′-biphenyl]-4-yl)amino)methyl)-5-chlorophenyl)picolinamido)propanoic acid] | 7.42 | 6.79
